Publication PMC7400446, “Antimicrobial and Antifungal Activity of Rare Substituted 1,2,3-Thiaselenazoles and Corresponding Matched Pair 1,2,3-Dithiazoles” (Antibiotics, 2020)
In brackets after ≈: the same amount, converted by molar mass.

Columns and labels:
L1210 = tested on: L1210; design: method as in PMID 19036587, PMID 23010140, PMID 28709952; conditions: cited from earlier work
K562 = tested on: K562; design: method as in PMID 19036587, PMID 23010140, PMID 28709952; conditions: cited from earlier work
ASCT2 Transport = tested on: ASCT2 Transport; design: method as in PMID 19036587, PMID 23010140, PMID 28709952; conditions: cited from earlier work
S. aureus = tested on: S. aureus; design: method as in PMID 19036587, doi:10.1016/0960-894X(96)00062-5, doi:10.1016/0960-894X(96)00423-4, doi:10.1016/S0223-5234(98)80040-8; conditions: cited from earlier work
E. faecalis = tested on: E. faecalis; design: method as in PMID 19036587, doi:10.1016/0960-894X(96)00062-5, doi:10.1016/0960-894X(96)00423-4, doi:10.1016/S0223-5234(98)80040-8; conditions: cited from earlier work
L. monocytogenes = tested on: L. monocytogenes; design: method as in PMID 19036587, doi:10.1016/0960-894X(96)00062-5, doi:10.1016/0960-894X(96)00423-4, doi:10.1016/S0223-5234(98)80040-8; conditions: cited from earlier work
C. neoformans = tested on: C. neoformans; design: method as in earlier work; conditions: cited from earlier work
haemolytic activity = test: Haemolysis assay; type: cell-based
Protocol: Hc10 (concentration at 10% haemolytic activity) was calculated by curve fitting the inhibition values vs. log(concentration) using a Sigmoidal dose-response function, with variable values for bottom, top and slope. The curve fitting is implemented using Pipeline Pilot’s dose-response component (giving similar results to similar tools such as GraphPad’s Prism and IDBS’s XlFit). […] DMax represents the highest percentage inhibition response for all concentrations tested. […] In addition, the value indicates if samples have been active, but curve fitting failed, mostly because only the single highest concentration was active.

HEK293 cells = test: Cytotoxicity assay (resazurin); type: cell-based
Protocol: (§1) HEK293 cells were counted manually in a Neubauer haemocytometer and then plated in the 384-well plates containing the compounds to give a density of 6000 cells/well in a final volume of 50 μL. DMEM supplemented with 10% FBS was used as growth media and the cells were incubated together with the compounds for 20 h at 37 °C in 5% CO2. Analysis: Cytotoxicity (or cell viability) was measured by fluorescence, ex: 560/10 nm, em: 590/10 nm (F560/590), after addition of 5 μL of 25 μgmL^−1 Resazurin (2.3 μgmL^−1 final concentration) and after incubation for further 3h at 37 °C in 5% CO2. The fluorescence intensity was measured using a Tecan M1000 Pro monochromator plate reader, using automatic gain calculation CC50 (concentration at 50% cytotoxicity) were calculated by curve fitting the inhibition values vs. log(concentration) using sigmoidal dose-response function, with variable fitting values for bottom, top and slope.

[1] = tested on: C. neoformans (Strain ATCC 208821, H99 Type strain); test: Antifungal assay, MIC; type: cell-based, Cryptococcus neoformans var. grubii
Protocol: (§2) Fungi strains C. albicans (Strain ATCC 90028, CLSI reference) and C. neoformans (Strain ATCC 208821, H99 Type strain), were cultured for 3 days on Yeast Extract-Peptone Dextrose (YPD) agar at 30 °C. A yeast suspension of 1 × 10^6 to 5 × 10^6 CFU/mL (as determined by OD530) was prepared from five colonies. The suspension was subsequently diluted and added to each well of the compound-containing plates giving a final cell density of fungi suspension of 2.5 × 10^3 CFU/mL and a total volume of 50 μL. All plates were covered and incubated at 35 °C for 36 h without shaking.
(§3) Analysis: Growth inhibition of C. albicans was determined measuring absorbance at 630 nm (OD630), while the growth inhibition of C. neoformans was determined measuring the difference in absorbance between 600 and 570 nm (OD600–570), after the addition of resazurin (0.001% final concentration) and incubation at 35 °C for 2 h. The absorbance was measured using a Biotek Multiflo Synergy HTX plate reader. In both cases, the percentage of growth inhibition was calculated for each well, using the negative control (media only) and positive control (fungi without inhibitors) on the same plate. […] Due to a higher variance in growth and inhibition, a lower threshold was applied to the data for C. neoformans.

[2] = tested on: Staphylococcus aureus, Acinetobacter baumannii, Candida albicans and Cryptococcus neoformans var. grubii; test: Initial antimicrobial screen (CO-ADD); type: cell-based; conditions: 10 μM; Active / Inactive
Description: We then screened this series of 1,2,3-dithiazoles and 1,2,3-thiaselenazoles (8−15) against Staphylococcus aureus, Acinetobacter baumannii, Candida albicans and Cryptococcus neoformans var. grubii (Table 1) as part of the Community for Antimicrobial Drug Discovery (CO-ADD) initiative to develop new lead compounds [51]. These represent three distinct classes of microbes. Staphylococcus aureus (ATCC 43300) is a gram-positive bacterium derived from the super bug methicillin-resistant Staphylococcus aureus (MRSA). Acinetobacter baumannii (ATCC 19606) is a gram-negative bacterium hospital-derived infection with very few antibiotics that can treat this pathogen. Candida albicans (ATCC 90028) and Cryptococcus neoformans var. grubii (ATCC 208821) are both opportunistic fungi. These fungal pathogens are particularly dangerous for patients in hospital with immunodeficiencies, undergoing cancer chemotherapy and organ transplantation. These strains are considered by the World Health Organization (WHO) to be the highest priority to develop novel antibiotics for control of these bacteria and fungi. These are some of the most difficult to treat, particularly in a hospital setting where sepsis and pneumonia can quickly overcome the body’s immune system.
The 1,2,3-thiaselenazole analog (13) was potent on against three of the four pathogens with a similar profile to 9a without the activity on A. baumannii.
Antimicrobial screening was performed by CO-ADD (The Community for Antimicrobial Drug Discovery), Australia.
(§4) All bacteria, S. aureus (Strain ATCC 43300, MRSA), E. coli (Strain ATCC 25922, FDA control strain), K. pneumoniae (Strain ATCC 700603, MDR), A. baumannii (Strain ATCC 19606, Type strain), P. aeruginosa (Strain ATCC 27853, Quality control strain), were cultured in Cation-adjusted Mueller Hinton broth (CAMHB) at 37 °C overnight. A sample of each culture was then diluted 40-fold in fresh broth and incubated at 37 °C for 1.5–3 h. The resultant mid-log phase cultures were diluted (CFU/mL measured by OD600), then added to each well of the compound containing plates, giving a cell density of 5 × 10^5 CFU/mL and a total volume of 50 μL. All the plates were covered and incubated at 37 °C for 18 h without shaking.
(§5) Analysis: Inhibition of bacterial growth was determined measuring absorbance at 600 nm (OD600), using a Tecan M1000 Pro monochromator plate reader. The percentage of growth inhibition was calculated for each well, using the negative control (media only) and positive control (bacteria without inhibitors) on the same plate as references. […]
Fungi strains C. albicans (Strain ATCC 90028, CLSI reference) and C. neoformans (Strain ATCC 208821, H99 Type strain), were cultured for 3 days on Yeast Extract-Peptone Dextrose (YPD) agar at 30 °C. A yeast suspension of 1 × 10^6 to 5 × 10^6 CFU/mL (as determined by OD530) was prepared from five colonies. The suspension was subsequently diluted and added to each well of the compound-containing plates giving a final cell density of fungi suspension of 2.5 × 10^3 CFU/mL and a total volume of 50 μL. All plates were covered and incubated at 35 °C for 36 h without shaking. […]

[3] = tested on: C. albicans (Strain ATCC 90028, CLSI reference); test: Antifungal assay, MIC; type: cell-based, Candida albicans
Protocol: as §2, §3

[4] = tested on: S. aureus (Strain ATCC 43300, MRSA); test: Antibacterial assay, MIC; type: cell-based, Staphylococcus aureus; conditions: Staphylococcus aureus; ATCC 43300 (MRSA); MIC = lowest concentration with inhibition ≥80%
Protocol: as §4, §5

[5] = Cytotoxicity assay (resazurin); type: cell-based; conditions: human; HEK293 cells, 20 h; unit not given in Table 1; read-out: CC50 (concentration at 50% cytotoxicity)
Protocol: as §1

[6] = tested on: A. baumannii (Strain ATCC 19606, Type strain); test: Antibacterial assay, MIC; type: cell-based, Acinetobacter baumannii; conditions: Acinetobacter baumannii, ATCC19606; ATCC 19606; MIC = lowest concentration with inhibition ≥80%
Protocol: as §4, §5

N#Cc1cnn(CCc2ccccc2)c1/N=c1/ssnc1Cl [Compound 1]
IC50 (L1210): 5 µM | IC50 (K562): 3 µM

N#Cc1ncn(CCc2ccccc2)c1/N=c1/ssnc1Cl [Compound 2]
IC50 (L1210): 3 µM | IC50 (K562): 4 µM

FC(F)(F)Oc1ccc(/N=c2/ssnc2Cl)cc1Cl [Compound 3]
IC50 (ASCT2 Transport): 8.1 µM

Clc1nss/c1=N/c1ccccc1 [Compound 4]
MIC S. aureus (S. aureus): 16 µg/mL (≈ 70 µM) | MIC E. faecalis (E. faecalis): 16 µg/mL (≈ 70 µM) | MIC L. monocytogenes (L. monocytogenes): 16 µg/mL (≈ 70 µM)

COc1ccccc1/N=c1/ssnc1Cl [Compound 5]
MIC E. faecalis (E. faecalis): 16 µg/mL (≈ 61.8 µM) | MIC L. monocytogenes (L. monocytogenes): 16 µg/mL (≈ 61.8 µM)

N#Cc1ccccc1/N=c1/ssnc1Cl [Compound 6]
MIC C. neoformans (C. neoformans): 8 µg/mL (≈ 31.5 µM)

COc1ccc(/N=c2/ssnc2Cl)cc1 [Compound 7]
MIC C. neoformans (C. neoformans): 8 µg/mL (≈ 30.9 µM)

c1ccc(-c2c3ssnc-3c3ccccc23)cc1 [Compound 8a]
Haemolysis (in words) (haemolytic activity): no toxicity or haemolysis | Toxicity (in words) (HEK293 cells): no toxicity or haemolysis | Activity against C. neoformans (in words) [1]: antifungal selective | Initial Screen [2]: Inactive | Activity against C. albicans (in words) [3]: antifungal selective

c1ccc2c(c1)N=C1S[Se]N=C1O2 [Compound 15, Benzo[b][1,2,3]thiaselenazolo[5,4-e][1,4]oxazine]
Hc10 (concentration at 10% haemolytic activity) (haemolytic activity; unit not given): >32 | MIC [4]: > 32 µg/mL | CC50 at 20 h [5]: > 32 µg/mL | Toxicity (in words) (HEK293 cells): no toxicity | Activity against C. neoformans (in words) [1]: recovered some antifungal activity | MIC ([1]; Cryptococcus neoformans, ATCC208821, ATCC 208821, inhibition ≥70% (method)): 2 µg/mL | MIC [6]: > 32 µg/mL | melting point: 178 to 180 °C | Activity against C. albicans (in words) [3]: recovered some antifungal activity | MIC ([3]; Candida albicans, ATCC90028, ATCC 90028, inhibition ≥80%): ≤ 0.25 µg/mL
